Assay results published in a compilation of properties of binary mixtures (doi:10.1016/j.jct.2017.05.012).

Test: xn = mol fraction of the nth substance listed
Conditions: 101 kPa

CCCCCCCCOS(=O)(=O)[O-].CC[n+]1ccn(C)c1 + O
Conditions | electrical conductivity [S/m] | viscosity [mPa·s]
268.15 K, x2 = 0.7822 | 0.277 | –
268.15 K, x2 = 0.8104 | 0.331 | –
268.15 K, x2 = 0.8384 | 0.406 | –
273.15 K, x2 = 0.7822 | 0.355 | –
273.15 K, x2 = 0.8104 | 0.417 | –
273.15 K, x2 = 0.8384 | 0.529 | –
278.15 K, x2 = 0.7822 | 0.447 | –
278.15 K, x2 = 0.8104 | 0.522 | –
278.15 K, x2 = 0.8384 | 0.653 | –
283.15 K, x2 = 0.7822 | 0.552 | –
283.15 K, x2 = 0.8104 | 0.642 | –
283.15 K, x2 = 0.8237 | 0.677 | –
283.15 K, x2 = 0.8384 | 0.799 | –
288.15 K, x2 = 0.8104 | 0.772 | –
288.15 K, x2 = 0.8237 | 0.819 | –
288.15 K, x2 = 0.8384 | 0.956 | –
290.15 K, x2 = 0.8384 | 1.02 | –
291.15 K, x2 = 0.8237 | 0.91 | –
291.15 K, x2 = 0.8384 | 1.05 | –
292.15 K, x2 = 0.8104 | 0.89 | –
293.15 K, x2 = 0.7822 | 0.801 | –
293.15 K, x2 = 0.8104 | 0.921 | –
293.15 K, x2 = 0.8237 | 0.971 | –
293.15 K, x2 = 0.8384 | 1.13 | –
294.15 K, x2 = 0.8104 | 0.951 | –
296.15 K, x2 = 0.8237 | – | 73.9
297.15 K, x2 = 0.7822 | – | 76.7
297.15 K, x2 = 0.8384 | – | 62.9
298.15 K, x2 = 0.7822 | 0.949 | 72.6
298.15 K, x2 = 0.8104 | 1.07 | 67.2
298.15 K, x2 = 0.8384 | 1.31 | 59.6
299.15 K, x2 = 0.8237 | – | 60.2
300.15 K, x2 = 0.8237 | – | 57.1
303.15 K, x2 = 0.7822 | 1.11 | 55.9
303.15 K, x2 = 0.8104 | 1.25 | 51.7
308.15 K, x2 = 0.7822 | – | 43.7
308.15 K, x2 = 0.8104 | – | 40.4
308.15 K, x2 = 0.8237 | – | 38.33
308.15 K, x2 = 0.8384 | – | 36.02
313.15 K, x2 = 0.7822 | 1.47 | 34.66
313.15 K, x2 = 0.8237 | 1.73 | –
313.15 K, x2 = 0.8384 | 1.98 | 28.64
318.15 K, x2 = 0.8237 | – | 24.55
323.15 K, x2 = 0.7822 | 1.89 | 22.8
323.15 K, x2 = 0.8104 | 2.09 | 21.03
323.15 K, x2 = 0.8384 | 2.55 | 18.8
328.15 K, x2 = 0.8237 | – | 16.51
333.15 K, x2 = 0.8104 | 2.66 | 14.42
333.15 K, x2 = 0.8384 | 3.13 | 12.91
338.15 K, x2 = 0.8237 | – | 11.57
343.15 K, x2 = 0.8104 | 3.17 | 10.28
343.15 K, x2 = 0.8237 | 3.28 | –
343.15 K, x2 = 0.8384 | 3.76 | 9.26
353.15 K, x2 = 0.8237 | 3.77 | –
358.15 K, x2 = 0.8237 | 3.99 | –
363.15 K, x2 = 0.8237 | 4.35 | –
